Measurements taken from patent US20240262803A1, “COMPOUNDS, COMPOSITIONS AND METHODS OF TREATING DISORDERS” (Chungdu Anticancer Bioscience Ltd, priority 2021, published 2024).
Read-outs that look alike come from different tables or passages of the source.

Key:
Format in all cases: cell-based
RPEMYC^H2B-GFP cells [1] = test: Mechanism-informed phenotypic screening assay (mitotic arrest, polyploidy; GE IN-Cell Analyzer 2000); settings: 20 nM to 20 μM, 24, 48 or 72 hours, read-out: Min. Effective conc. for polyploidy (≥5%)
How it was run: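 Cells expressing Histone 2B-EGFP (RPEMYC^H2B-GFP) were plated 18-24 h before exposure to compounds at 20 nM to 20 μM. At 24, 48 or 72 h, imaging scored mitotic arrest or change in DNA content. Value is the lowest concentration giving polyploid accumulation at 48 h.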

[2] = test system: lung cancer cell line NCI-H23; test: MTT assay of cellular proliferation, NCI-H23; settings: Homo sapiens, read-out: EC50: Concentration that inhibits 50% of proliferation
Protocol: (§1) Six lung cancer cell lines (NCI-H23, NCI-H460, NCI-H596, NCI-H2170, Calu-6 and A549), two colon cancer cell lines (HCT116 and SW460), one breast cancer cell line MDA-MB-231, one gastric cancer cell line NCI-N87, one prostate cancer cell line DU145, one cervical cancer cell line Hela, and one glioblastoma cell line T98G were obtained from ATCC. The T2 HCC cell line was derived from a mouse liver cancer model initiated by a transgene of MYC (Reference). All cell lines were cultured in DMEM (Gibco, Cleveland, TN, USA) supplemented with 5% fetal bovine serum (Gibco), penicillin (100 U/mL)-streptomycin (100 μg/mL) (Gibco, Cat. No. 15140-122), 2 mM L-glutamine (Gibco, 200 mM solution, Cat. No. 25030081), and 1 mM sodium pyruvate (Gibco, 100 mM solution, Cat. No. 11360070) at 37° C. in a humidified incubator that was maintained at 5% CO2.
(§2) The MTT assay measures cellular metabolic activity as a proxy for cell viability and involves the conversion of the water-soluble yellow dye MTT [3-(4,5-dimethylthiazol-2-yl)-2,5-diphenyltetrazolium bromide] into an insoluble purple formazan by the action of mitochondrial reductase. Formazan is then solubilized and its concentration is determined by measuring the optical density (OD) value at a wavelength of 570 nm. The value is in proportional to the number of live cells with excellent linearity up to ˜10^6 cells per well. The MTT assay was used to determine the EC50 value, the concentration of a compound that leads to 50% inhibition of cellular proliferation. Briefly, cells were split when growing to the mid-Log phase. Cells in 100 μL of culture medium were seeded into each well of 96-well microplates and cultivated for 15˜24 hours to reach a confluence of 20˜30% and were then exposed to drugs at concentrations ranging from 1 nM to 10 μM. At the endpoint, 20 μL of a MTT stock solution in DMSO (5 mg/mL) was added to each well that contains […] of DMEM. The microplates were left in the cell culture incubator for 3˜4 h before subjected to solubilization and determination of formazan at A570 in a microplate reader (BioTek ELX808iu). […] Therefore, these compounds might hold a broad utility in the treatment of a large variety of human malignancies.

[3] = test system: lung cancer cell line A549; test: MTT assay of cellular proliferation, A549; settings: Homo sapiens, read-out: EC50: Concentration that inhibits 50% of proliferation
Protocol: as §1, §2

[4] = test system: colon cancer cell line HCT116; test: MTT assay of cellular proliferation, HCT116; settings: Homo sapiens, HCT-116, read-out: EC50: Concentration that inhibits 50% of proliferation
Protocol: as §1, §2

[5] = test system: colon cancer cell line SW460; test: MTT assay of cellular proliferation, SW460; settings: Homo sapiens, SW480; read-out: EC50: Concentration that inhibits 50% of proliferation
Protocol: as §1, §2

[6] = test system: breast cancer cell line MDA-MB-231; test: MTT assay of cellular proliferation, MDA-MB-231; settings: Homo sapiens, read-out: EC50: Concentration that inhibits 50% of proliferation
Protocol: as §1, §2

[7] = test system: gastric cancer cell line NCI-N87; test: MTT assay of cellular proliferation, NCI-N87; settings: Homo sapiens, read-out: EC50: Concentration that inhibits 50% of proliferation
Protocol: as §1, §2

[8] = test system: cervical cancer cell line Hela; test: MTT assay of cellular proliferation, Hela; settings: Homo sapiens, read-out: EC50: Concentration that inhibits 50% of proliferation
Protocol: as §1, §2

[9] = test system: liver cancer cell line T2 HCC; test: MTT assay of cellular proliferation, T2 HCC; settings: Mus musculus, read-out: EC50: Concentration that inhibits 50% of proliferation
Protocol: as §1, §2

[10] = test system: lung cancer cell line NCI-H23; test: Minimal effective concentration that elicits polyploidy, NCI-H23; settings: Homo sapiens, read-out: MECP: Minimal effective concentration that elicits polyploidy
[11] = test system: lung cancer cell line A549; test: Minimal effective concentration that elicits polyploidy, A549; settings: Homo sapiens, read-out: MECP: Minimal effective concentration that elicits polyploidy
[12] = test system: colon cancer cell line HCT116; test: Minimal effective concentration that elicits polyploidy, HCT116; settings: Homo sapiens, HCT-116, read-out: MECP: Minimal effective concentration that elicits polyploidy
SW480 = test: Minimal effective concentration that elicits polyploidy, SW480; settings: Homo sapiens, read-out: MECP: Minimal effective concentration that elicits polyploidy
[13] = test system: breast cancer cell line MDA-MB-231; test: Minimal effective concentration that elicits polyploidy, MDA-MB-231; settings: Homo sapiens, read-out: MECP: Minimal effective concentration that elicits polyploidy
[14] = test system: cervical cancer cell line Hela; test: Minimal effective concentration that elicits polyploidy, Hela; settings: Homo sapiens, read-out: MECP: Minimal effective concentration that elicits polyploidy
[15] = test system: gastric cancer cell line NCI-N87; test: Minimal effective concentration that elicits polyploidy, NCI-N87; settings: Homo sapiens, read-out: MECP: Minimal effective concentration that elicits polyploidy
[16] = test system: liver cancer cell line T2 HCC; test: Minimal effective concentration that elicits polyploidy, T2 HCC; settings: Mus musculus, read-out: MECP: Minimal effective concentration that elicits polyploidy
RPEMYC^H2B-GFP cells [17] = test: Mechanism-informed phenotypic screening assay (mitotic arrest, polyploidy; GE IN-Cell Analyzer 2000); settings: 20 nM to 20 μM, 24, 48 or 72 hours, read-out: Mitotic Arrest (≥5%)

Compound	minimal effective concentration (RPEMYC^H2B-GFP cells [1]) [µM]	EC50 [2] [nM]	EC50 [3] [nM]	EC50 [4] [nM]	EC50 [5] [nM]	EC50 [6] [nM]	EC50 [7] [nM]	EC50 [8] [nM]	EC50 [9] [nM]	minimal effective concentration [10] [µM]	minimal effective concentration [11] [µM]	minimal effective concentration [12] [µM]	minimal effective concentration (SW480) [µM]	minimal effective concentration [13] [µM]	minimal effective concentration [14] [µM]	minimal effective concentration [15] [µM]	minimal effective concentration [16] [µM]	minimal effective concentration (RPEMYC^H2B-GFP cells [17]) [µM]
COc1cc(OC)cc(Oc2ncccc2-c2ccnc(C)c2)c1 [Compound 42, 2-(3,5-dimethoxyphenoxy)-2′-methyl-3,4′-bipyridine]	1	1 to 1000	1 to 1000	1 to 1000	1 to 1000	1 to 1000	1 to 1000	1 to 1000	1 to 1000	0.001 to 1	0.001 to 1	0.001 to 1	0.001 to 1	0.001 to 1	0.001 to 1	0.001 to 1	0.001 to 1	1
CCOc1cc(Oc2ncccc2-c2ccnc(C)c2)cc(C(=O)NC)c1 [Compound 38, 3-ethoxy-N-methyl-5-((2′-methyl-[3,4′-bipyridin]-2-yl)oxy)benzamide]	1	1 to 1000	1 to 1000	1 to 1000	1 to 1000	1 to 1000	1 to 1000	1 to 1000	1 to 1000	0.001 to 1	0.001 to 1	0.001 to 1	0.001 to 1	0.001 to 1	0.001 to 1	0.001 to 1	0.001 to 1	1
COc1cc(NC(C)=O)cc(Oc2ncccc2-c2ccnc(Cl)c2)c1 [Compound 46, N-(3-((2′-chloro-[3,4′-bipyridin]-2-yl)oxy)-5-methoxyphenyl)acetamide]	1	1 to 1000	1 to 1000	1 to 1000	1 to 1000	1 to 1000	1 to 1000	1 to 1000	1 to 1000	0.001 to 1	0.001 to 1	0.001 to 1	0.001 to 1	0.001 to 1	0.001 to 1	0.001 to 1	0.001 to 1	1
COc1cc(Oc2ncccc2-c2ccnc(C)c2)cc(-n2cccn2)c1 [Compound 41, 2-(3-methoxy-5-(1H-pyrazol-1-yl)phenoxy)-2′-methyl-3,4′-bipyridine]	1	1 to 1000	1 to 1000	1 to 1000	1 to 1000	1 to 1000	1 to 1000	1 to 1000	1 to 1000	0.001 to 1	0.001 to 1	0.001 to 1	0.001 to 1	0.001 to 1	0.001 to 1	0.001 to 1	0.001 to 1	1
COc1cc(Oc2ncccc2-c2ccnc(OC)c2)cc(C(F)(F)F)c1 [Compound 30, 2′-methoxy-2-(3-methoxy-5-(trifluoromethyl)phenoxy)-3,4′-bipyridine]	1	1 to 1000	1 to 1000	1 to 1000	1 to 1000	1 to 1000	1 to 1000	1 to 1000	1 to 1000	0.001 to 1	0.001 to 1	0.001 to 1	0.001 to 1	0.001 to 1	0.001 to 1	0.001 to 1	0.001 to 1	1
CNC(=O)c1cc(Oc2ncccc2-c2ccncc2)cc(C(F)(F)F)c1 [Compound 8, 3-([3,4′-bipyridin]-2-yloxy)-N-methyl-5-(trifluoromethyl)benzamide]	1	1 to 1000	1 to 1000	1 to 1000	1 to 1000	1 to 1000	1 to 1000	1 to 1000	1 to 1000	0.001 to 1	0.001 to 1	0.001 to 1	0.001 to 1	0.001 to 1	0.001 to 1	0.001 to 1	0.001 to 1	1
COc1cc(NC(C)=O)cc(Oc2ncccc2-c2ccnc(C)c2)c1 [Compound 43, N-(3-methoxy-5-((2′-methyl-[3,4′-bipyridin]-2-yl)oxy)phenyl)acetamide]	1	1 to 1000	1 to 1000	1 to 1000	1 to 1000	1 to 1000	1 to 1000	1 to 1000	1 to 1000	0.001 to 1	0.001 to 1	0.001 to 1	0.001 to 1	0.001 to 1	0.001 to 1	0.001 to 1	0.001 to 1	1
COc1cc(Oc2ncccc2-c2ccnc(C)c2)cc(C(F)(F)F)c1 [Compound 40, 2-(3-methoxy-5-(trifluoromethyl)phenoxy)-2′-methyl-3,4′-bipyridine]	1	1 to 1000	1 to 1000	1 to 1000	1 to 1000	1 to 1000	1 to 1000	1 to 1000	1 to 1000	0.001 to 1	0.001 to 1	0.001 to 1	0.001 to 1	0.001 to 1	0.001 to 1	0.001 to 1	0.001 to 1	1
CCOc1cc(Oc2ncccc2-c2ccnc(OC)c2)cc(C(=O)NC)c1 [Compound 28, 3-ethoxy-5-((2′-methoxy-[3,4′-bipyridin]-2-yl)oxy)-N-methylbenzamide]	1	1 to 1000	1 to 1000	1 to 1000	1 to 1000	1 to 1000	1 to 1000	1 to 1000	1 to 1000	0.001 to 1	0.001 to 1	0.001 to 1	0.001 to 1	0.001 to 1	0.001 to 1	0.001 to 1	0.001 to 1	1
